This note sets out measurements from publication PMC4155245, “Clostridium difficile has a single sortase, SrtB, that can be inhibited by small-molecule inhibitors” (BMC Microbiology, 2014).

Like-named read-outs stand apart in the source and are kept apart here.

This experiment addresses T1, SrtB (sortase B, CD630_27180) (Clostridioides difficile, UniProt Q183F3).
T1 construct: SrtBΔN26 (N-terminal transmembrane residues 2–25 replaced with a six-histidine tag)
The experiment in a line: FRET peptide cleavage assay (d-PVPPKTGDS-e) with purified recombinant SrtBΔN26. Type of experiment: biochemical.

T1 sequence (Q183F3 entry or part of it): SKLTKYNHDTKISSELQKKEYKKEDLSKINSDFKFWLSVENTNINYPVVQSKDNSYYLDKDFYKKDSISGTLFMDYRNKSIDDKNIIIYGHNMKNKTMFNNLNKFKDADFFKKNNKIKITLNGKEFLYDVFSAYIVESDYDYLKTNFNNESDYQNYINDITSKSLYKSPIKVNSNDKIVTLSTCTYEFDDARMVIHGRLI

By IC50 is commonly meant the concentration at which inhibition is half-maximal. As for LSHTM-0040 [LSHTM40], under “read-out: IC50”, the IC50 was determined as 63.1 ± 8.8 µM.
Consider `C[N+](C)(C)CCSS(C)(=O)=O` [MTSET, 2-(trimethylamonium)ethylmethanethiosulfonate], for which the IC50 was found to be 287 ± 16.6 µM.
For the compound LSHTM-0052 [LSHTM52], the IC50 (read-out: IC50) is 44.1 ± 6.9 µM.
Turning to LSHTM-0050 [LSHTM50], the half-maximal inhibitory concentration (IC50) (read-out: IC50) came out at 60.1 ± 4.7 µM.
